One series concerns rat brain. Put plainly: infarct volume after middle cerebral artery occlusion (MCAO). It is filed as in vivo. How it is done:
Adult male rats weighing 200-250 g were anesthetized. Focal cerebral ischemia was induced by ligature of the left common carotid artery and occlusion of the ipsilateral distal middle cerebral artery (MCAO). […] Rats subjected to sham MCAO operation served as control. To determine infarct volume, the brains were removed 48 hours after MCAO and a series of coronal brain slices were obtained and stained with 1% 2,3,5-triphenyl-tetrazolium chloride in 0.1M phosphate buffer. The infarct volume was determined by adding the infarct volumes, which were unstained by the dye.

A further series relates to platelets. Put plainly: epinephrine-induced platelet aggregation. In kind it is cell-based, human. From the text:
During the study, optical density was continuously recorded.

A further series deals with β-amyloid. Briefly: inhibition of β-amyloid.
In series [1] the test system is blood vessels. Briefly: inhibition of contraction.
The subject of a further series is NO production. Put plainly: stimulation of NO production.
Series [2] has as its system blood vessels. Put plainly: vasodilation of blood vessels.
The conditions of series [3]: patients; cited from earlier work.
The conditions of series [4]: cited from earlier work.
The subject of series [5] is human platelets. Put plainly: collagen-induced human platelet aggregation, preincubation with drug. It is filed as cell-based. Particulars: 15 min preincubation; for peak aggregation: collagen (baseline around 89%). As to the method:
(§1) 500 microliter of whole blood was diluted with equal volume of 0.9% sodium chloride and prewarmed at 37° C. for 5 minutes. For optical studies, platelet rich plasma blood was mixed gently and immediately centrifuged at 180 g for 10 min to obtain platelet-rich plasma (PRP). Platelet poor plasma (PPP) was obtained by centrifugation at 1800 g for 15 minutes at room temperature. The platelet concentration in the PRP was adjusted to approximately 250×10^9 cells/l using PPP. Readings were taken at 37° C. at a stirring speed of 1200 rpm.
(§2) Aggregation agonists were used at a final concentration of 2.0×10^−5 M for ADP, 0.19 mg/ml for collagen, 500 μg/ml for arachidonic acid, and 1×10^−4 M for epinephrine. During the study, optical density was continuously recorded. The 0% and 100% aggregation levels were set with PRP and PPP, respectively. The maximal percentage of platelet aggregation was calculated as the light transmission between platelet-rich and platelet-poor plasma (100%). When a stable baseline was obtained with 450 μl of PRP, 50 μl of one of the aggregation-inducing agents was added. The maximum height and slope of the aggregation curves were determined. After the electrode was immersed in the sample, platelet aggregation to various agonists (collagen, ADP, arachidonic acid or epinephrine) was measured in ohms of impedance. The lag phase was defined as the delay time occurring between the addition of collagen and the beginning of the aggregation curve.
Blood samples were preincubated in 50 μM or 100 μM rasagiline, a MAO-B inhibitor, for 15 minutes and aggregation stimulated using collagen. […] Aggregation onset was also delayed by treatment with rasagiline.

The test system of series [6] is human platelets. Put plainly: ADP-induced human platelet aggregation, preincubation with drug. It is filed as cell-based. The conditions noted are these: data not shown. As to the method:
as §1
as §2, with “The lag phase was defined as the delay time occurring between the addition of collagen and the beginning of the aggregation curve.” left out

For `C#CCN(C)[C@H](C)Cc1ccccc1` [1-deprenyl, L-deprenyl], the “blood vessel disruption and bleeding” value with rat brain (following 1-deprenyl administration) is “reduced”. For the same compound, the “platelet aggregation induced by epinephrine” value in the series with platelets was “inhibited the platelet aggregation”. Further, the “ability to inhibit β-amyloid” value in the series on β-amyloid is “inhibit β-amyloid”. In the series with blood vessels [1], the “ability to inhibit contraction” value is “inhibit contraction”. Further, in the series with NO production, the “ability to stimulate NO production” value is listed as “stimulate NO production” and the “lowest concentration with stimulatory effect on NO production” value came out at 1 µM. Moreover, in the series with blood vessels [2], the “ability to dilate blood vessels” value is reported as “dilate blood vessels”. Moreover, in the series with blood vessels [2] (low doses), the “dose causing rapid NO-mediated endothelium-dependent vasodilation” value was not above 10 µM.

Turning to `Cl.NCCNC(=O)c1ccc(Cl)cc1` [RO-16-6491, N-(2-aminoethyl)4-chlorobenzamide hydrochloride], the “ability to inhibit β-amyloid” value in the series on β-amyloid is recorded as “inhibit β-amyloid”. The “ability to inhibit contraction” value in the series with blood vessels [1] is given as “inhibit contraction”. For the same compound, the “ability to stimulate NO production” value with NO production is “stimulate NO production”. The “ability to dilate blood vessels” value in the series on blood vessels [2] was “dilate blood vessels”.

Turning to `Cl.NCCNC(=O)c1ncsc1-c1cccc(F)c1` [RO-41-1049, N-(2-aminoethyl)-5-(3-fluorophenyl)-4-thiazolecarboxamide hydro-chloride], in the series on β-amyloid, the “ability to inhibit β-amyloid” value is listed as “inhibit β-amyloid”. Moreover, the “ability to inhibit contraction” value in the series on blood vessels [1] is “inhibit contraction”. The “ability to stimulate NO production” value in the series with NO production is on record as “stimulate NO production”. Further, in the series on blood vessels [2], the “ability to dilate blood vessels” value was “dilate blood vessels”.

Consider `CC(=O)Oc1ccccc1C(=O)O` [aspirin, Acetylsalicylic acid], for which the “reduction of infarct size” value in the series on rat brain (aspirin 30 mg/kg intraperitoneally 2 hours prior to MCAO, brains 48 hours after MCAO, vs untreated control) is “about 30%”. The “relative risk reduction of CVD” value in series [3] is reported as 25%.

Turning to `COC(=O)[C@H](c1ccccc1Cl)N1CCc2sccc2C1` [clopidogrel], the “share of drug converted to active metabolites in the liver” value in series [4] (by cytochrome P450 isoforms) is 15%. Further, in [4] (in vivo), the “share of prodrug converted into inactive metabolites” value is reported as 85%.

For the compound `C#CCN(C)CCCOc1ccc(Cl)cc1Cl` [clorgyline], the “ability to inhibit β-amyloid” value in the series with β-amyloid is “inhibit β-amyloid”. In the series with blood vessels [1], the “ability to inhibit contraction” value was “inhibit contraction”. Besides, the “ability to stimulate NO production” value in the series with NO production is listed as “stimulate NO production”. In addition, the “ability to dilate blood vessels” value with blood vessels [2] is “dilate blood vessels”.

Consider `C#CCN(C)Cc1ccccc1` [pargyline], for which the “ability to inhibit β-amyloid” value in the series with β-amyloid is “inhibit β-amyloid”. Further, the “ability to inhibit contraction” value in the series on blood vessels [1] is given as “inhibit contraction”. For the same compound, the “ability to stimulate NO production” value in the series with NO production is recorded as “stimulate NO production”. Further, the “ability to dilate blood vessels” value with blood vessels [2] was “dilate blood vessels”.

Regarding `C#CCN[C@@H]1CCc2ccccc21` [rasagiline], in the series on human platelets [5] (50 μM or 100 μM, collagen), the aggregation onset result is “delayed”. Besides, the values for the peak aggregation with human platelets [5] (50 μM) and in the series on human platelets [5] (100 μM) were 35% and “negligible levels”, respectively. Also, in the series on human platelets [6], at 100 µM the inhibition was 69%.

These data come from US8906894B1, “Methods for preventing and treating thrombotic disorders” (priority 2000, dated 2014).
